# Data published in patent US10988474B2, “Compounds acting at multiple prostaglandin receptors giving a general anti-inflammatory response” (ALLERGAN, INC., priority 2011, dated 2021).
# Experiments:
# Format in all cases: cell-based
# [1] = molecular target: T1, human prostanoid EP1 receptor (Homo sapiens, UniProt P34995); assay: FLIPR Ca2+ signaling PG antagonist assay, EP1 stable cell line; settings: HEK-293 EBNA cells, human recombinant EP1, no exogenous G-protein; standard agonist PGE2
# T1 construct: expressed in transfected cells
# T1 sequence (P34995 1-402): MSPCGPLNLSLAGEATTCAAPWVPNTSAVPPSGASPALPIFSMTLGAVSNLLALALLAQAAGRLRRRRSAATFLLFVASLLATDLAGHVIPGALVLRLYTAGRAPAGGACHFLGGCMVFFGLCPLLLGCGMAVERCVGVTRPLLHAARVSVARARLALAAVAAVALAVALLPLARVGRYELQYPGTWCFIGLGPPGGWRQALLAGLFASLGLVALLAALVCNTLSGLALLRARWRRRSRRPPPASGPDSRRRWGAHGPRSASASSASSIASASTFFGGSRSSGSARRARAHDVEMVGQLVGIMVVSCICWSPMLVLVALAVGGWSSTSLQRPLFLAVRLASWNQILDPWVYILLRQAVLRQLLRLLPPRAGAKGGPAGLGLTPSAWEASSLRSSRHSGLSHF
# Method: (§1) The above compounds were tested for PG antagonist activity as follows using human recombinant prostanoid receptor (DP1, EP1-4, FP, IP and TP) stable cell lines: In order to measure the response of Gs and Gi coupled prostanoid receptors as a Ca^2+ signal, chimeric G protein cDNAs were used. Stable cell lines over-expressing human prostanoid DP1, EP1-4, FP, IP, and TP receptors were established as follows:
# (§2) Briefly, human prostanoid DP1, EP2, and EP4 receptor cDNAs were co-transfected with chimeric Gqs cDNA containing a haemagglutanin (HA) epitope; human prostanoid EP3 receptors were co-transfected with chimeric Gqi-HA; human EP1, FP, IP, and TP receptor cDNAs were expressed with no exogenous G-proteins. Gqs and Gqi chimeric cDNAs (Molecular Devices, Sunnyvale, Calif., U.S.A.), as well as cDNAs of prostanoid receptors, were cloned into a pCEP4 vector with a hygromycin B selection marker. Transfection into HEK-293 EBNA (Epstein-Barr virus nuclear antigen) cells was achieved by the FuGENE 6 transfection Reagent (Roche Applied Science, Indianapolis, Ind., USA). Stable transfectants were selected according to hygromycin resistance. Because Gqs and Gqi contained an HA epitope, G-protein expression was detected by Western blotting analysis using anti-mouse HA monoclonal antibody and horseradish peroxidase (HRP)-conjugated secondary antibody, while functional expression of prostanoid receptors was detected by FLIPR screening (Matias et al., 2004). These stable cell lines were validated using previously published antagonists at 10 μM against serial dilutions of standard agonists by FLIPR functional assays for Ca^2+ Signaling (as described below).
# (§3) Ca^2+ signaling studies were performed using a FLIPR TETRA system (Molecular Devices, Sunnyvale, Calif., USA) in the 384-format. This is a high-throughput instrument for cell-based assays to monitor Ca^2+ signaling associated with GPCRs and ion channels. Cells were seeded at a density of 5×10^4 cells/well in BioCoat poly-D-lysine coated, black wall, clear bottom 384-well plates (BD Biosciences, Franklin lakes, NJ, USA) and allowed to attach overnight in an incubator at 37° C. The cells were then washed twice with HBSS-HEPES buffer (Hanks' balanced salt solution without bicarbonate and phenol red, 20 mM HEPES, pH 7.4) using an ELx405 Select CW Microplate Washer (BioTek, Winooski, Vt., USA). After 60 min of dye-loading in the dark using the Ca^2+-sensitive dye Fluo-4AM (Invitrogen, Carlsbad, Calif., USA), at a final concentration of 2×10^−6M, the plates were washed 4 times with HBSS-HEPES buffer to remove excess dye and leaving 50 μl of buffer in each well. The plates were then placed in the FLIPR TETRA instrument and allowed to equilibrate at 37° C. Compounds were added in a 25 μl volume to each well to give final concentrations of 0.1 μM, 0.3 μM, 1 μM, 3 μM, 10 μM, and 30 μM; or 0.067 μM, 0.1 μM, 0.2 μM, 0.3 μM, 0.67 μM, and 1 μM for cells over-expressing TP receptors. After 4.5 minutes, a 7-point serial dilution of the standard agonist for the corresponding receptor, in a 25 μl volume was injected at the final concentrations from 10^−11M to 10^−5M in 10-fold serial dilution increments for cells expressing human recombinant DP1, EP1, EP2, EP3, EP4, FP, and IP receptors. The dose range for the standard agonist for human recombinant TP receptors was from 10^−12M to 10^−6M. HBSS-HEPES buffer was used as the negative control for the standard agonists. Cells were excited with LED (light emitting diode) excitation at 470-495 nm and emission was measured through an emission filter at 515-575 nm. Assay plates were read for 3.5 minutes using the FLIPR^TETRA. The peak increase in fluorescence intensity was recorded for each well. On each plate, negative controls, dose response of positive controls, and co-treatments of antagonist-agonist for each dose were in triplicates. Standard agonists were as follows: DP=BW 245C, EP1-EP4=PGE2, FP=17-phenyl-PGF2α, IP=Cicaprost, and TP=U-46619. […]
# [2] = molecular target: T2, human prostanoid EP4 receptor (Homo sapiens, UniProt P35408); assay: FLIPR Ca2+ signaling PG antagonist assay, EP4 stable cell line; settings: HEK-293 EBNA cells, human recombinant EP4 with chimeric Gqs; standard agonist PGE2
# T2 construct: expressed in transfected cells
# T2 sequence (P35408 whole entry): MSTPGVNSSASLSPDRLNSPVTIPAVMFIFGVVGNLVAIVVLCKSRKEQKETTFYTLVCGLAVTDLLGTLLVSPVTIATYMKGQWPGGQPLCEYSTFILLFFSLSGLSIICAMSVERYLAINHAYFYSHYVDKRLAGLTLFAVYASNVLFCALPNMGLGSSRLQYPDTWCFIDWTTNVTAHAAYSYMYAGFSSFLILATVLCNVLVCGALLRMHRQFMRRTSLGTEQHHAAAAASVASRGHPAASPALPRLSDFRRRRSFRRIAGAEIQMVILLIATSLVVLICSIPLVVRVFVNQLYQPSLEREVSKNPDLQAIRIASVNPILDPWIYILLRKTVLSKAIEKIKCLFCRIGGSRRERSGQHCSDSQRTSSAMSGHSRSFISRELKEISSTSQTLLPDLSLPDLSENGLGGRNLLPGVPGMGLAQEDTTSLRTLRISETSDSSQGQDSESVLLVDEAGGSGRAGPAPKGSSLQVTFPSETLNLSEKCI
# Method: as §1, §2, §3
# [3] = molecular target: T3, human prostanoid TP receptor (Homo sapiens, UniProt P21731); assay: FLIPR Ca2+ signaling PG antagonist assay, TP stable cell line; settings: HEK-293 EBNA cells, human recombinant TP, no exogenous G-protein; standard agonist U-46619
# T3 construct: expressed in transfected cells
# T3 sequence (P21731 1-343): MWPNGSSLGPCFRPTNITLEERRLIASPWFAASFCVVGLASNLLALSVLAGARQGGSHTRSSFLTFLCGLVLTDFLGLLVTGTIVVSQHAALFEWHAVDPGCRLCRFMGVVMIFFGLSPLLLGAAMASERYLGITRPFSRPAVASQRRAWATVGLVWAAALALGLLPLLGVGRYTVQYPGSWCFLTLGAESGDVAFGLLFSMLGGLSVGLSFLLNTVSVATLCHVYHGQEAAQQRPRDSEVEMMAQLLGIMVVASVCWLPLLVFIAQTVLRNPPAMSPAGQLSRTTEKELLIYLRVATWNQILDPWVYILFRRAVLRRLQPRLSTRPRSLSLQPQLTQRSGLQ
# Method: as §1, §2, §3
"TP (Kb, PG antagonist activity) [3]",SMILES,Kb [1] [nM],Kb [2] [nM],Kb [3] [nM]
,"CCc1nn(Cc2cc(Br)ccc2OCC(CC)CC)c2ccc(C(=O)O)cc12 [Example 65, 1-[5-Bromo-2-(2-Ethyl-Butoxy)-Benzyl]-3-Ethyl-1H-Indazole-5-Carboxylic Acid]",40,55,52
,"CCC(CC)COc1ccc(Cl)cc1Cn1cc2c(C(=O)O)cccc2n1 [Example 39, 2-[5-Chloro-2-(2-Ethyl-Butoxy)-Benzyl]-2H-Indazole-4-Carboxylic Acid]",1200,1600,110
,"O=C(O)c1ccc2c(cnn2Cc2cc(C(F)(F)F)ccc2OCC2CCCC2)c1 [Example 33, 1-(2-Cyclopentylmethoxy-5-Trifluoromethyl-Benzyl)-1H-Indazole-5-Carboxylic Acid]",70,30,1
,CC(C)COc1ccc(O)cc1Cn1ncc2cc(C(=O)O)ccc21 [Example 54],1300,2700,640
,"CC(C)COc1ccc(OC(F)(F)F)cc1Cn1ncc2cc(C(=O)O)ccc21 [Example 20, 1-(2-Isobutoxy-5-Trifluoromethoxy-Benzyl)-1H-Indazole-5-Carboxylic Acid]",30,30,50
,"O=C(O)c1cccc2c1cnn2Cc1cc(Cl)ccc1OCC1CC1 [Example 34, 1-(5-Chloro-2-Cyclopropylmethoxy-Benzyl)-1H-Indazole-4-Carboxylic Acid]",70,≥ 10000,100
,"CC(C)COc1ccc(S(C)(=O)=O)cc1Cn1ncc2cc(C(=O)O)ccc21 [Example 48, 1-(2-Isobutoxy-5-Methanesulfonyl-Benzyl)-1H-Indazole-5-Carboxylic Acid]",260,≥ 10000,500
PAgonist,"O=C(O)c1ccc2c(cnn2Cc2cc(Cl)ccc2OCc2ccc(Cl)cc2)c1 [Example 9, 1-[5-Chloro-2-(4-Chloro-Benzyloxy)-Benzyl]-1H-Indazole-5-Carboxylic Acid]",90,3000,
,"CCc1nn(Cc2cc(Br)ccc2OCC(C)C)c2ccc(C(=O)O)cc12 [Example 64, 1-(5-Bromo-2-Isobutoxy-Benzyl)-3-Ethyl-1H-Indazole-5-Carboxylic Acid]",5,50,8
,"Cc1nn(Cc2cc(OC(F)(F)F)ccc2OCC(C)C)c2ccc(C(=O)O)cc12 [Example 22, 1-(2-Isobutoxy-5-Trifluoromethoxy-Benzyl)-3-Methyl-1H-Indazole-5-Carboxylic Acid]",16,350,5
,"CCC(CC)COc1ccc(Br)cc1Cn1nc(C)c2cc(C(=O)O)ccc21 [Example 27, 1-[5-Bromo-2-(2-Ethyl-Butoxy)-Benzyl]-3-Methyl-1H-Indazole-5-Carboxylic Acid]",110,53,20
,"CCC(CC)COc1ccc(Cl)cc1Cn1ncc2cc(C(N)=O)ncc21 [Example 62, 1-[5-Chloro-2-(2-Ethyl-Butoxy)-Benzyl]-1H-Pyrazolo[3,4-C]Pyridine-5-Carboxylic Acid Amide]",≥ 10000,≥ 10000,≥ 10000
,"CC(C)COc1ccc(Br)cc1Cn1ccc2cc(C(=O)O)ccc21 [Example 67, 1-(5-Bromo-2-Isobutoxy-Benzyl)-1H-Indole-5-Carboxylic Acid]",60,340,160
,"Cc1nn(Cc2cc(Cl)ccc2OCC(C)C)c2ccc(C(=O)O)cc12 [Example 24, 1-(5-Chloro-2-Isobutoxy-Benzyl)-3-Methyl-1H-Indazole-5-Carboxylic Acid]",20,150,80
,"CC(C)COc1ccc(Cl)cc1Cn1cc2cc(C(=O)O)ccc2n1 [Example 16, 2-(5-Chloro-2-Isobutoxy-Benzyl)-2H-Indazole-5-Carboxylic Acid]",90,600,400
,"O=C(O)c1cccc2nn(Cc3cc(Cl)ccc3OCC3CC3)cc12 [Example 35, 2-(5-Chloro-2-Cyclopropylmethoxy-Benzyl)-2H-Indazole-4-Carboxylic Acid]",4200,670,1200
,"CCC(CC)COc1ccc(OC(F)(F)F)cc1Cn1cc(C)c2cc(C(=O)O)ccc21 [Example 77, 1-[2-(2-Ethyl-Butoxy)-5-Trifluoromethoxy-Benzyl]-3-Methyl-1H-Indole-5-Carboxylic Acid]",900,1500,1100
,"CCC(CC)COc1ccc(Br)cc1Cn1c(C)cc2cc(C(=O)O)ccc21 [Example 68, 1-[5-Bromo-2-(2-Ethyl-Butoxy)-Benzyl]-2-Methyl-1H-Indole-5-Carboxylic Acid]",≥ 10000,9700,≥ 10000
,"CCC(CC)COc1ccc(Br)cc1Cn1cnc2cc(C(=O)O)ccc21 [Example 78, 1-[5-Bromo-2-(2-Ethyl-Butoxy)-Benzyl]-1H-Benzoimidazole-5-Carboxylic Acid]",145,35,16
,"CCC(CC)COc1ccc(Cl)cc1Cn1ncc2ccc(C(=O)O)cc21 [Example 46, 1-[5-Chloro-2-(2-Ethyl-Butoxy)-Benzyl]-1H-Indazole-6-Carboxylic Acid]",7100,≥ 10000,150
,"O=C(O)c1ccc2c(cnn2Cc2cc(C(F)(F)F)ccc2OCc2ccc(Cl)cc2)c1 [Example 32, 1-[2-(4-Chloro-Benzyloxy)-5-Trifluoromethyl-Benzyl]-1H-Indazole-5-Carboxylic Acid]",210,5000,50
,"Cc1nn(Cc2cc(Cl)ccc2OCC(C)C)c2ncc(C(=O)O)cc12 [Example 61, 1-(5-Chloro-2-Isobutoxy-Benzyl)-3-Methyl-1H-Pyrazolo[3,4-B]Pyridine-5-Carboxylic Acid]",180,760,300
